Here are results for four compounds from PMC6539310, “Investigation on the Enzymatic Profile of Mulberry Alkaloids by Enzymatic Study and Molecular Docking” (Molecules, 2019).

Like-named read-outs stand apart in the source and are kept apart here. Where only a bound is given, the exact number is not on record here.

In one test the target is maltase (Rattus norvegicus, UniProt D3ZTX4). In words: Enzyme-kinetic analysis on maltase (Lineweaver–Burk plots). Type of test: biochemical, Wistar rats. As to conditions: maltose substrate. As for the experimental part:
(§1) Sucrase and maltase were obtained from the intestinal brush border of Wistar rats. […] Each stock solution was prepared with distilled water. All other solvents and chemicals were of analytical purity.
(§2) Lineweaver–Burk double reciprocal plots (LB plots) were then obtained to calculate the kinetic constants and evaluate inhibitory type, the equation is as follows: 1/V = (Km + [S])/(Vmax[S]) = (Km/Vmax) * (1/[S]) + (1/Vmax),
(§3) In this equation, [S] denotes the concentration of substrate, V represents the enzyme reaction velocity and Km is the Michaelis–Menten constant.

For test [1], the target named is T1, sucrase (Rattus norvegicus, UniProt P23739).
T1 construct: Sucrase and maltase were obtained from the intestinal brush border of Wistar rats; from tissue; host or cells: intestinal brush border of Wistar rats
T1 sequence (P23739 whole entry): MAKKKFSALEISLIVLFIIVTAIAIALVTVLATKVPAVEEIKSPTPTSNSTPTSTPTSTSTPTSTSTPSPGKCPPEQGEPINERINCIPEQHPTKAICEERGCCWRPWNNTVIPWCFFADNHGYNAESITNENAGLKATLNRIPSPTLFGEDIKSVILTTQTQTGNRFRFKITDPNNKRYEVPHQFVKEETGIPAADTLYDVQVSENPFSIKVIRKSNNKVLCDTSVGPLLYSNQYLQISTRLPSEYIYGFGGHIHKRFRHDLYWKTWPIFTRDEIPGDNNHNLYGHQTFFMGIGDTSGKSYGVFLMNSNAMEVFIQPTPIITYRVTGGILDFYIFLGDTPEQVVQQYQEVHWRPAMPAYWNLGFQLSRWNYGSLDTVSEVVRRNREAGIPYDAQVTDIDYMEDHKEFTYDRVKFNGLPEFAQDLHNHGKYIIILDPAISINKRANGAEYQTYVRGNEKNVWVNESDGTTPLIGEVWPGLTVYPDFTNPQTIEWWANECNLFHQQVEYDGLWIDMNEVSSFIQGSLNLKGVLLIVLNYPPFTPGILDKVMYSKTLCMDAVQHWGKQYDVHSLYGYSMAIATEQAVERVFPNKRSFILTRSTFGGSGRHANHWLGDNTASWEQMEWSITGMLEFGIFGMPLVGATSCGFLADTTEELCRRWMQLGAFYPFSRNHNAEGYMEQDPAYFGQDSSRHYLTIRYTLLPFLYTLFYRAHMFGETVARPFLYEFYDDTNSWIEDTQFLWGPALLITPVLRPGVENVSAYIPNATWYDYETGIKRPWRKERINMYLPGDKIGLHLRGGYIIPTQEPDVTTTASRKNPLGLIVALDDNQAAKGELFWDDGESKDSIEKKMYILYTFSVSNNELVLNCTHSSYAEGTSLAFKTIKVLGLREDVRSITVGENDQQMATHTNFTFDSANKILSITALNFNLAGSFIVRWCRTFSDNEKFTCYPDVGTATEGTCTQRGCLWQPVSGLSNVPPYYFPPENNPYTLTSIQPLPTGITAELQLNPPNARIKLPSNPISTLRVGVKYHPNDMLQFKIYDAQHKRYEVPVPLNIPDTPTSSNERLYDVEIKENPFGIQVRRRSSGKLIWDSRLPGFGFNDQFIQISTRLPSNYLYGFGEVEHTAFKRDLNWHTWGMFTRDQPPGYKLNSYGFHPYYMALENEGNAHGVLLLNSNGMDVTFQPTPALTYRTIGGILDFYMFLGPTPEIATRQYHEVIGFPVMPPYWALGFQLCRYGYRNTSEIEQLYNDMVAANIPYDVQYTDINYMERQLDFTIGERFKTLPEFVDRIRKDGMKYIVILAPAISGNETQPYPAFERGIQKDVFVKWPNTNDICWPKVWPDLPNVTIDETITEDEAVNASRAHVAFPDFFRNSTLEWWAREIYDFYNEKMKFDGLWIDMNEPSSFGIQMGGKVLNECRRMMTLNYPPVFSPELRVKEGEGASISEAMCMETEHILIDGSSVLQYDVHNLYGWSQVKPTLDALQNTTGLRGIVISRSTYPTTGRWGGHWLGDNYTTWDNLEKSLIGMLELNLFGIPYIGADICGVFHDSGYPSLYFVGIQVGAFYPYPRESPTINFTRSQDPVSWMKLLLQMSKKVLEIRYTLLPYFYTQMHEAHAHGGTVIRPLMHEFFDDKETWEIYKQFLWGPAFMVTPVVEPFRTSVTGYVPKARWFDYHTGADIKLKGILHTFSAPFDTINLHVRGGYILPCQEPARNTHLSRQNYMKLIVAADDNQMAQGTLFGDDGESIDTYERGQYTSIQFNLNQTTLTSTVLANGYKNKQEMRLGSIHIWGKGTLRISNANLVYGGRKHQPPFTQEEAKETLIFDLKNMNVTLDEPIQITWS
In words: Enzyme-kinetic analysis on sucrase (Lineweaver–Burk plots). In kind it is biochemical, Wistar rats. As to conditions: for Ki: from LB plots; for Inhibition Type: sucrose substrate. As for the experimental part:
as §1, §2, §3

In test [2] the target is T1, sucrase. In words: α-glucosidase inhibition assay, sucrase (sucrose substrate, glucose oxidase readout). The settings on record: for Sucrase Inhibition, Inhibition Ratio (%): at 4 × 10^−5 M. In kind it is biochemical, Wistar rats. As for the experimental part:
as §1
The modified inhibitory screening system was used to determine inhibitory activity on α-glucosidase. Selected starch, sucrose, and maltose were used as α-glucosidase substrates instead of p-nitrophenyl glucopyranoside. Maltase and sucrase were pre-incubated with different concentrations of compound (0.004–400 μmol/L) at 37 °C for 8 min, and the substrate was then added into initiate the reaction. After incubation at 37 °C for 40 min, 150 μL of glucose oxidase solution was added to each mixture and incubated at 37 °C for 40 min. […] Inhibitory percentage values were calculated using the formula: %Inhibition = (B − C)/B × 100, where B is the formation of glucose under the enzyme without compound and C is the formation of glucose with compound.

The target in another test is α-amylase. The test is described as follows: α-amylase inhibition assay (starch-iodine). As to conditions: for α-Amylase Inhibition, Inhibition Ratio (%): at 1 × 10^−5 M. Type of test: biochemical. As for the experimental part: as §1
α-amylase was pre-incubated with different compound concentrations (0.016–100 μmol/L) at 37 °C for 15 min, and the reaction was initiated with the addition of 100 µL of 0.04% starch solution. After incubation at 37 °C for 10 min, 0.1 M iodine reagent was added. Absorption at 660 nm was measured to determine the remaining amount of starch in the reaction and thus calculate the inhibitory effect in the different samples.

Where [3] appears, read: read-out: Sucrase Inhibition IC50.

For `OC[C@H]1NC[C@H](O)[C@@H](O)[C@@H]1O` [1-DNJ, 1-deoxynojirimycin], on maltase, the “Inhibition Type” value is on record as “Competitive inhibition”. Besides, on sucrase [1], the Ki amounted to 0.0137 µM and the “Inhibition Type” value is on record as “Competitive inhibition”. At sucrase [2] (IC50 amylase / IC50 sucrase), the “Selectivity sucrase over amylase (IC50 amylase/IC50 disaccharidases)” value was 1282 times. In addition, the “Sucrase Inhibition, Inhibition Ratio (%)” value on sucrase [2] worked out at 100%. Further, the IC50 at sucrase [2] (converted from μmol/L by mol wt, read-out: Sucrase IC50 after conversion according to the molecular weight (converted)) is 0.0613 µM. For the same compound, at sucrase [2] (setting [3]), the IC50 worked out at 0.078 µM. For the same compound, on α-amylase, the IC50 is greater than 100 µM; the “Inhibitory activity on α-amylase (in words)” value (from here on “Inhibitory activity”) is “no obvious inhibitory activity”; the “α-Amylase Inhibition, Inhibition Ratio (%)” value is 0%.
Turning to `C[C@H]1O[C@H](O[C@H]2[C@H](O)[C@@H](O)[C@@H](O[C@H]3[C@H](O)[C@@H](O)C(O)O[C@@H]3CO)O[C@@H]2CO)[C@H](O)[C@@H](O)[C@@H]1N[C@H]1C=C(CO)[C@@H](O)[C@H](O)[C@H]1O` (stereo partly drawn) [Acarbose, acarbose, reference compound], the “Inhibition Type” value at maltase and on sucrase [1] was “Competitive inhibition” in each case. Moreover, the “Inhibitory activity” value in the test with α-amylase is on record as “strongly inhibited”.
Consider `OC[C@H]1NC[C@@H](O)[C@@H]1O` [DAB, 1,4-dideoxy-1,4-imino-D-arabinitol], for which the “Inhibition Type” value on maltase is “Competitive inhibition”. Further, at α-amylase, the IC50 was greater than 100 µM and the “Inhibitory activity” value was “no obvious inhibitory activity”.
`OC[C@H]1NCC[C@@H](O)[C@@H]1O` [FA, fagomine]: at maltase, the “Inhibition Type” value is reported as “Competitive inhibition”. In addition, on sucrase [1], the affinity, expressed as Ki, was 3.97 µM and the “Inhibition Type” value was “Competitive inhibition”. Moreover, the “Sucrase Inhibition, Inhibition Ratio (%)” value on sucrase [2] is 84.6%. Besides, the IC50 at sucrase [2] (setting [3]) stood at 13.5 µM. Besides, on α-amylase, the IC50 is greater than 100 µM; the “Inhibitory activity” value was “no obvious inhibitory activity”; the “α-Amylase Inhibition, Inhibition Ratio (%)” value is 0%.

As a reminder, the Ki is a measure of affinity in units of concentration, obtained from inhibition or displacement. Broadly, the IC50 is the midpoint of a concentration-inhibition curve.
